# Legend:
# MV-4-11 cells = test: Cell growth inhibition assay (CellTiter-Glo), MV-4-11; details: for GI50: Homo sapiens, MV4-11, read-out: MV-4-11 GI50; for MV-4-11 TGI: MV-4-11 cells, total growth inhibition, CellTiter-Glo;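 on all read-outs here: cellular ATP luminescence after 4 days, 3-fold dilution series from 10 µM top dose, vehicle (0.1% DMSO) set to 100%, cell-free medium set to −100%, day 0 corrected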
# K-562 cells = test: Cell growth inhibition assay (CellTiter-Glo), K-562; details: for GI50: Homo sapiens, K562, read-out: K-562 GI50; for K-562 TGI: K-562 cells, total growth inhibition, CellTiter-Glo;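 on all read-outs here: cellular ATP measured by luminescence after 4 days of exposure, 3-fold dilution series from 10 µM, DMSO vehicle-treated cells define 100%, cell-free medium wells −100%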
# BRD3 (His-Brd3(20-477)) = BRD3 (His-Brd3(20-477)) (Homo sapiens (Human), UniProt Q15059); test: TR-FRET in-vitro binding assay for BRD3; details: single determination or n ≧ 2 independent determinations, read-out: Biochemical IC50 BRD3
# BRD3 (His-Brd3(20-477)), sequence (Q15059 20-477): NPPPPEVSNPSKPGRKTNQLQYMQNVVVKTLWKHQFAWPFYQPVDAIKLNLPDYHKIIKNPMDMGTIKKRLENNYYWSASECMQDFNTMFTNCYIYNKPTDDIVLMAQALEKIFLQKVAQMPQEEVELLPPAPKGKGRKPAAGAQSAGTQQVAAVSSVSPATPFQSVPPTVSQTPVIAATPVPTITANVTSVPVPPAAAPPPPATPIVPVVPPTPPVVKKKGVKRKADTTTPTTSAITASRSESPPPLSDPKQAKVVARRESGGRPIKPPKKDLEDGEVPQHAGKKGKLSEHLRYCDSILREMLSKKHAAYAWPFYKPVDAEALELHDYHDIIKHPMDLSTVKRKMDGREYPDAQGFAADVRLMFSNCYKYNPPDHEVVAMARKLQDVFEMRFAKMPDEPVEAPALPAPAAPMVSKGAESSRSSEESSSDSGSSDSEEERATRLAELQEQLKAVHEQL
# How it was run: (§1)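 In this TR-FRET format, each compound was tested as an 8-point dilution series, single point per concentration, dispensed from 90% DMSO solution. Incubation lasted 35 minutes at 30° C.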
# [1] = target: CREBBP bromodomain (His-CREBBP(1081-1197)) (Homo sapiens (Human), UniProt Q92793); test: AlphaScreen in-vitro binding assay for CREBBP; details: single determination or n ≧ 2 independent determinations, read-out: Biochemical IC50 CREBBP
# CREBBP bromodomain (His-CREBBP(1081-1197)), sequence (Q92793 1081-1197): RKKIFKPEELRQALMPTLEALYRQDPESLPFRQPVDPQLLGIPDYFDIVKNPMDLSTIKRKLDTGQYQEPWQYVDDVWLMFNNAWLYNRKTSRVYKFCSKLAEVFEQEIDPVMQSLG
# How it was run: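 Detection used nickel-chelate acceptor plus streptavidin donor AlphaScreen beads, 1 h room temperature. Percent inhibition fitted by non-linear regression to IC50.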
# BRD2 (His-Brd2(60-472)) = BRD2 (His-Brd2(60-472)) (Homo sapiens (Human), UniProt P25440); test: TR-FRET in-vitro binding assay for BRD2; details: single determination or n ≧ 2 independent determinations, read-out: Biochemical IC50 BRD2
# BRD2 (His-Brd2(60-472)), sequence (P25440 60-472): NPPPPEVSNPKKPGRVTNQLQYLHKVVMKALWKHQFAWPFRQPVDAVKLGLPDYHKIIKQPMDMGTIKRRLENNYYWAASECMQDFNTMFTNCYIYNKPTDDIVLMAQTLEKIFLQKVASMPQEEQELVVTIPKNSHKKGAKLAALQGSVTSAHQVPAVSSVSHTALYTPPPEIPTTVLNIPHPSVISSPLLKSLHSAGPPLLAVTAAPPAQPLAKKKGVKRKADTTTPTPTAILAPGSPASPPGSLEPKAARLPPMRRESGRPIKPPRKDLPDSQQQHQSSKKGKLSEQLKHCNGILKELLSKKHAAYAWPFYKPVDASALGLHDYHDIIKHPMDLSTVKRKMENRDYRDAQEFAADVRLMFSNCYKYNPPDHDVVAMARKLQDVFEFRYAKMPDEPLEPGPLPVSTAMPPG
# How it was run: as §1
# BRD4 (His-Brd4(44-477)) = BRD4 (His-Brd4(44-477)) (Homo sapiens (Human), UniProt O60885); test: TR-FRET in-vitro binding assay for BRD4; details: single determination or n ≧ 2 independent determinations, read-out: Biochemical IC50 BRD4
# How it was run: as §1
# THP-1 cells = test: Cell growth inhibition assay (CellTiter-Glo), THP-1; details: for GI50: Homo sapiens, THP-1, read-out: THP-1 GI50; for THP-1 TGI: THP-1 cells, total growth inhibition, CellTiter-Glo;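 on all read-outs here: viability read as cellular ATP luminescence after 4 days, 3-fold dilution series from 10 µM, DMSO vehicle-treated cells taken as 100%, cell-free medium wells as −100%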
GI50 (MV-4-11 cells) [nM],GI50 (K-562 cells) [nM],IC50 (BRD3 (His-Brd3(20-477))) [nM],IC50 [1] [nM],IC50 (BRD2 (His-Brd2(60-472))) [nM],IC50 (BRD4 (His-Brd4(44-477))) [nM],GI50 (THP-1 cells) [nM],Compound,MV-4-11 TGI (MV-4-11 cells) [nM],K-562 TGI (K-562 cells) [nM],THP-1 TGI (THP-1 cells) [nM]
16.2,270,37,13100,67,30,82.8,"Cc1cc(N2C(=O)c3nc(C4=CC(C)(C)NC(C)(C)C4)n(C(C)C)c3C2c2ccc(Cl)cc2)cn2c(CF)nnc12 (stereo not drawn) [Example 90, 6-(4-chlorophenyl)-5-(3-(fluoromethyl)-8-methyl-[1,2,4]triazolo[4,3-a]pyridin-6-yl)-1-isopropyl-2-(2,2,6,6-tetramethyl-1,2,3,6-tetrahydropyridin-4-yl)-5,6-dihydropyrrolo[3,4-d]imidazol-4(1H)-one]",31.75,>10000,271
27.4,353,45,17500,95,34.5,122,Cc1cc(N2C(=O)c3nc(C4=CCCN(C)C4)n(C(C)C)c3C2c2ccc(Cl)cc2)cn2c(CF)nnc12 (stereo not drawn) [Example 91],63.7,>10000,334
15.3,110,27,5800,27,< 11,23.9,"Cc1cc(N2C(=O)c3nc(C4=CCOC4)n(C(C)C)c3C2c2ccc(Cl)cc2)cn2c(CF)nnc12 (stereo not drawn) [Example 92, 6-(4-chlorophenyl)-2-(2,5-dihydrofuran-3-yl)-5-(3-(fluoromethyl)-8-methyl-[1,2,4]triazolo[4,3-a]pyridin-6-yl)-1-isopropyl-5,6-dihydropyrrolo[3,4-d]imidazol-4(1H)-one]",33.65,>10000,78.4
4.96,42.9,25,> 37000,63,26.5,7.22,"Cc1cc(N2C(=O)c3nc(C4=CCOCC4)n(C(C)C)c3C2c2ccc(Cl)cc2)nn2c(C)nnc12 (stereo not drawn) [Example 100, 6-(4-chlorophenyl)-2-(3,6-dihydro-2H-pyran-4-yl)-5-(3,8-dimethyl-[1,2,4]triazolo[4,3-b]pyridazin-6-yl)-1-isopropyl-5,6-dihydropyrrolo[3,4-d]imidazol-4(1H)-one]",13.8,>10000,26.7
1.86,15.5,24,19600,34,23,3.49,"Cc1cc(N2C(=O)c3nc(C4CCOCC4)n(C(C)C)c3C2c2ccc(Cl)cc2)nn2c(C)nnc12 (stereo not drawn) [Example 101, 6-(4-chlorophenyl)-5-(3,8-dimethyl-[1,2,4]triazolo[4,3-b]pyridazin-6-yl)-1-isopropyl-2-(tetrahydro-2H-pyran-4-yl)-5,6-dihydropyrrolo[3,4-d]imidazol-4(1H)-one]",4.11,>10000,11.05
1.38,13.4,17,17400,20,15,2.95,"Cc1cc(N2C(=O)c3nc(C4CCOCC4)n(C(C)C)c3[C@H]2c2ccc(Cl)cc2)nn2c(C)nnc12 [Example 102, (R)-6-(4-chlorophenyl)-5-(3,8-dimethyl-[1,2,4]triazolo[4,3-b]pyridazin-6-yl)-1-isopropyl-2-(tetrahydro-2H-pyran-4-yl)-5,6-dihydropyrrolo[3,4-d]imidazol-4(1H)-one]",4.435,>10000,10.51

# Second part, the molecule before the results:
Compound,GI50 (MV-4-11 cells) [nM],GI50 (K-562 cells) [nM],IC50 (BRD3 (His-Brd3(20-477))) [nM],IC50 [1] [nM],IC50 (BRD2 (His-Brd2(60-472))) [nM],IC50 (BRD4 (His-Brd4(44-477))) [nM],GI50 (THP-1 cells) [nM],MV-4-11 TGI (MV-4-11 cells) [nM],K-562 TGI (K-562 cells) [nM],THP-1 TGI (THP-1 cells) [nM]
COc1cc(N2C(=O)c3nc(C4CCN(C)CC4)n(C(C)C)c3C2c2ccc(Cl)cc2)cc2c1nnn2C (stereo not drawn) [Example 97],38.4,596,35.5,15600,58,23.5,148,90.2,>10000,432
"Cc1cc(N2C(=O)c3nc(C4CCN(C)CC4)n(C(C)C)c3C2c2ccc(Cl)cc2)cn2c(C)nnc12 (stereo not drawn) [Example 98, 6-(4-chlorophenyl)-5-(3,8-dimethyl-[1,2,4]triazolo[4,3-a]pyridin-6-yl)-1-isopropyl-2-(1-methylpiperidin-4-yl)-5,6-dihydropyrrolo[3,4-d]imidazol-4(1H)-one]",126,3630,23,2900,28,15,472,282,>10000,2140
"Cc1cc(N2C(=O)c3nc(C4=CCOCC4)n(C(C)C)c3[C@H]2c2ccc(Cl)cc2)nn2c(C)nnc12 [Example 103, (R)-6-(4-chlorophenyl)-2-(3,6-dihydro-2H-pyran-4-yl)-5-(3,8-dimethyl-[1,2,4]triazolo[4,3-b]pyridazin-6-yl)-1-isopropyl-5,6-dihydropyrrolo[3,4-d]imidazol-4(1H)-one]",2.09,12.4,< 11,> 37000,< 11,< 11,3.47,3.945,>10000,10.55
"Cc1cc(N2C(=O)c3nc(C4CCN(CC(C)(C)C)CC4)n(C(C)C)c3C2c2ccc(Cl)cc2)cn2c(C)nnc12 (stereo not drawn) [Example 104, 6-(4-chlorophenyl)-5-(3,8-dimethyl-[1,2,4]triazolo[4,3-a]pyridin-6-yl)-1-isopropyl-2-(1-neopentylpiperidin-4-yl)-5,6-dihydropyrrolo[3,4-d]imidazol-4(1H)-one]",8.21,53.4,33,2800,41,24.5,21.2,18.7,>10000,53.95
"Cc1cc(N2C(=O)c3ncn(C(C)C)c3C2c2ccc(Cl)cc2)cc2c1nnn2C (stereo not drawn) [Example 106, 6-(4-chlorophenyl)-5-(1,4-dimethyl-1H-benzo[d][1,2,3]triazol-6-yl)-1-isopropyl-5,6-dihydropyrrolo[3,4-d]imidazol-4(1H)-one]",19.3,92.5,41.5,7200,90,40.5,50.1,34.7,>10000,86.8
"Cc1cc(N2C(=O)c3nc(C4CC4)n(C(C)C)c3[C@H]2c2ccc(Cl)cc2)cn2c(C)nnc12 [Example 107, (R)-6-(4-chlorophenyl)-2-cyclopropyl-5-(3,8-dimethyl-[1,2,4]triazolo[4,3-a]pyridin-6-yl)-1-isopropyl-5,6-dihydropyrrolo[3,4-d]imidazol-4(1H)-one]",4.84,41.8,23,1450,28,23,11.2,9.71,>10000,23.75

# From patent US9890166B2, “Imidazopyrrolidine derivatives and their use in the treatment of disease” (NOVARTIS AG, priority 2013, dated 2018)
